Assays:
chondrocytes = details: in vitro; cited from earlier work
JAK3 = target: T1, JAK3 (Homo sapiens, UniProt P52333); details: cited from earlier work
T1 sequence (P52333 1-1124): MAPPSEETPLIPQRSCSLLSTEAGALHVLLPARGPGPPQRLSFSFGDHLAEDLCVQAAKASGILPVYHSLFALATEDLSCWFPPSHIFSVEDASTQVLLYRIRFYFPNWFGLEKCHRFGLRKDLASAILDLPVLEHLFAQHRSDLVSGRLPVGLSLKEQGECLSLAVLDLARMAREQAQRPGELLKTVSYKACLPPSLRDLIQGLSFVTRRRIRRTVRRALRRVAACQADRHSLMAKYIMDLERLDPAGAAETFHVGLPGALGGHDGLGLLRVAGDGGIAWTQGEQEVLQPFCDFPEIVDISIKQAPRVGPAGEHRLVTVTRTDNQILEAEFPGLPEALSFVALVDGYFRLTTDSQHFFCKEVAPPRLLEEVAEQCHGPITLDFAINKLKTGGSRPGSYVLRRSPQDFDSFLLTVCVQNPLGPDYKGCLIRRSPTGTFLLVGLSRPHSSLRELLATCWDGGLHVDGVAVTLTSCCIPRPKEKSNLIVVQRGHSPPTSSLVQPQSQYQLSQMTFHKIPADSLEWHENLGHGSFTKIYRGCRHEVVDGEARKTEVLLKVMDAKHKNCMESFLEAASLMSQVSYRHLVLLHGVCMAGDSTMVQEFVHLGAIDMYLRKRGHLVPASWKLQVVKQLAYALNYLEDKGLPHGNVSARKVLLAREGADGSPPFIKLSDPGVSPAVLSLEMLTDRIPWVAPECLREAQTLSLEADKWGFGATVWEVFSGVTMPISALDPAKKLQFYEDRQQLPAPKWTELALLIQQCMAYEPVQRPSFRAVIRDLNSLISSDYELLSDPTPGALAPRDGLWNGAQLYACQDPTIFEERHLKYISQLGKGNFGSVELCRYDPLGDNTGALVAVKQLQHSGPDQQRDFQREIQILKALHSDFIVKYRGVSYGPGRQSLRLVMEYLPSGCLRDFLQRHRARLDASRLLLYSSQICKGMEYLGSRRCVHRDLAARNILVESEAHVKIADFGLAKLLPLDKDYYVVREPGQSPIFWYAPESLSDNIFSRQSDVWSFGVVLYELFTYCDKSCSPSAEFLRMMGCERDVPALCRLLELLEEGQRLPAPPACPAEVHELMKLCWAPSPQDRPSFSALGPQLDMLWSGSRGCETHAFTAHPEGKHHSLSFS

[1] = target: T2, JAK3 (Janus kinase 3) protein tyrosine kinase (Homo sapiens, UniProt P52333); test: poly (Glu, Tyr) 4:1 ELISA, JAK3; assay type: biochemical; details: inhibitors solubilized in DMSO, read-out: ec-50 (effective concentration for 50% inhibition) of JAK3
T2 sequence (P52333 1-1124): T1 sequence (P52333 1-1124)
Experimental: (§1) To further examine the inhibition characteristics of DBH (and its variants) to a variety of cellular components, a poly (Glu, Tyr) 4:1 ELISA was performed. Hymenialdisine (H), DBH (as marine sponge extracts: see Chipman and Faulkner, 1997), and three variant forms of synthetic DBH: the free base form of DBH (DBH-2FB), a trifluoroacetic acid salt form of DBH (DBH-2S), and a methanesulfonic acid salt form of DBH (DBH 1) were solubilized in DMSO, and tested for the ability to inhibit; ZAP-70 (ζ-associated polypeptide of 70 kDa) protein tyrosine kinase, BTK (Bruton's agarnrnaglobulinaemia tyrosine kinase), JAK3 (Janus kinase 3) protein tyrosine kinase, LCK (Lymphoid T-cell protein tyrosine kinase), and IGFR (Insulin-like growth factor receptor) protein tyrosine kinase.
(§2) Maxisorb microtiter plates (Nalge Nunc International, Rochester, N.Y.) were coated with 1 mg/ml Poly(Glu,Tyr) 4:1 (Sigma, St. Louis, Mo.) solubilized in phosphate buffered saline (PBS), 0.02% sodium azide. On the day of the assay, microtiter plates were washed 4× with TBS-Tween (25 mM Tris pH 8.0, 150 mM NaCl, 0.05% Tween 20) using a Skatron plate washer (Skatron Instruments, Sterling, Va.). 200 μl of sterile blocking buffer (3% BSA in PBS, 0.02% sodium azide) was added to each well, and the microtiter plates were incubated at 37° C. for 1 hour. The blocking buffer was removed, the plates washed, and various concentrations of inhibitor were added in a 20 μl volume to the wells. 60 μl of the appropriate substrate mix was then added. Substrate mixes were prepared as described in Table 2:
(§3) Following addition of the substrate mix, 20 μl of the test protein tyrosine kinase (in 1× assay buffer) was added. Kinase reactions were incubated 30 min at 37° C., followed by washes in the Skatron plate washer. 100 μl of biotinylated PT-66 anti-phosphotyrosine monoclonal antibody (Sigma, St. Louis, Mo.) (diluted 1:4000 in 0.5% BSA, sterile-filtered TBS) was added to each well, and incubated for an additional 30 minutes at 37° C. […] The samples were then read at 450 nm in a plate reader.

[2] = target: T3, ZAP-70 (ζ-associated polypeptide of 70 kDa) protein tyrosine kinase (Homo sapiens, UniProt P43403); test: poly (Glu, Tyr) 4:1 ELISA, ZAP-70; assay type: biochemical; details: ec-50 values ranging from hundreds of micromolar to no inhibition (data not shown)
T3 sequence (P43403 1-619): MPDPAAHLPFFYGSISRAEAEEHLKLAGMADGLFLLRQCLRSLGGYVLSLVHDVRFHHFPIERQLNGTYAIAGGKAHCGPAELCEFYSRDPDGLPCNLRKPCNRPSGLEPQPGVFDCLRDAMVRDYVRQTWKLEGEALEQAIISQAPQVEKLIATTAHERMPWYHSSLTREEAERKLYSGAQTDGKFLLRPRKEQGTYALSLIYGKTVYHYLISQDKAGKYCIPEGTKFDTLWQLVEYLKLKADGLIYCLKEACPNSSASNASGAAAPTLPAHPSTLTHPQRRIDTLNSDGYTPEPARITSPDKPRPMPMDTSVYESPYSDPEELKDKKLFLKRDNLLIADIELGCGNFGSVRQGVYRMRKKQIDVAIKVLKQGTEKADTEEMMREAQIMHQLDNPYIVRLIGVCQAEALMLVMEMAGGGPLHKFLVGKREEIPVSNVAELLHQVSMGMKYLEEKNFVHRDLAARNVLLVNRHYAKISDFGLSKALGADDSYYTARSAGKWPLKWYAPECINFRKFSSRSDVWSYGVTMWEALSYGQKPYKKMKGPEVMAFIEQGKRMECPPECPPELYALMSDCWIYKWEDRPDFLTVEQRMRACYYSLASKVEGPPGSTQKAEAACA
Experimental: as §1, §2, §3

[3] = target: LCK (Lymphoid T-cell protein tyrosine kinase) (Homo sapiens, UniProt P06239); test: poly (Glu, Tyr) 4:1 ELISA, LCK; assay type: biochemical; details: ec-50 values ranging from hundreds of micromolar to no inhibition (data not shown)
Experimental: as §1, §2, §3

[4] = target: BTK (Bruton's agarnrnaglobulinaemia tyrosine kinase) (Homo sapiens, UniProt Q06187); test: poly (Glu, Tyr) 4:1 ELISA, BTK; assay type: biochemical; details: ec-50 values ranging from hundreds of micromolar to no inhibition (data not shown)
Experimental: as §1, §2, §3

[5] = target: IGFR (Insulin-like growth factor receptor) protein tyrosine kinase (Homo sapiens, UniProt P08069); test: poly (Glu, Tyr) 4:1 ELISA, IGFR; assay type: biochemical; details: ec-50 values ranging from hundreds of micromolar to no inhibition (data not shown)
Experimental: as §1, §2, §3

[6] = system: chondrocytes in culture and explants of articular cartilage; details: cited from earlier work
JAK3 mRNA = test: northern blot analysis of JAK3 expression in human articular chondrocytes; assay type: cell-based; details: 2 ng/ml for 24 hours, normal adult human articular chondrocytes in monolayer
Experimental: Frozen chondrocyte cell strain HC30-0198 (normal human articular chondrocytes prepared as described in Example 1) was thawed, cultured in monolayer (second passage), and cultured to 5 days post confluence. Test cultures were rinsed in phosphate buffered saline (PBS), followed by addition of either; 1) recombinant human interleukin-1β (rhIL-1β) (R&D Systems, Minneapolis, Minn.) at 2 ng/ml for 24 hours in serum-free DMEM containing 1% antibiotic solution, or 2) serum-free DMEM containing 1% antibiotic solution only (control).
RNA on the Northern blot was fixed to the membrane by using a Stratalinker® 1800 UV Crosslinker (Stratagene, La Jolla, Calif.).
A 109-base pair human cDNA for JAK3 was generated by RT-PCR (see Example 2 above).
Prehybridization and hybridization of the Northern blot was performed at 42° C. using a 1:1 dilution of 2× Prehybridization/Hybridization Solution (GIBCO/BRL, Gaithersburg, Md.) and formamide. After 15 hours of hybridization using the JAK3 DNA probe, the blot was successively washed two times in 2×SSC/0.1% SDS (15 minutes/wash at room temperature), and two times in 0.5×SSC/0.1% SDS (30 minutes/wash at 65° C.). The blot was allowed to air dry, and the radioactive signal was visualized using a Fujifilm BAS-1500 phosphorimager (Fuji Medical Systems, USA, Stamford, C1).

Chain of IGFR (Insulin-like growth factor receptor) protein tyrosine kinase (P08069 31-1367): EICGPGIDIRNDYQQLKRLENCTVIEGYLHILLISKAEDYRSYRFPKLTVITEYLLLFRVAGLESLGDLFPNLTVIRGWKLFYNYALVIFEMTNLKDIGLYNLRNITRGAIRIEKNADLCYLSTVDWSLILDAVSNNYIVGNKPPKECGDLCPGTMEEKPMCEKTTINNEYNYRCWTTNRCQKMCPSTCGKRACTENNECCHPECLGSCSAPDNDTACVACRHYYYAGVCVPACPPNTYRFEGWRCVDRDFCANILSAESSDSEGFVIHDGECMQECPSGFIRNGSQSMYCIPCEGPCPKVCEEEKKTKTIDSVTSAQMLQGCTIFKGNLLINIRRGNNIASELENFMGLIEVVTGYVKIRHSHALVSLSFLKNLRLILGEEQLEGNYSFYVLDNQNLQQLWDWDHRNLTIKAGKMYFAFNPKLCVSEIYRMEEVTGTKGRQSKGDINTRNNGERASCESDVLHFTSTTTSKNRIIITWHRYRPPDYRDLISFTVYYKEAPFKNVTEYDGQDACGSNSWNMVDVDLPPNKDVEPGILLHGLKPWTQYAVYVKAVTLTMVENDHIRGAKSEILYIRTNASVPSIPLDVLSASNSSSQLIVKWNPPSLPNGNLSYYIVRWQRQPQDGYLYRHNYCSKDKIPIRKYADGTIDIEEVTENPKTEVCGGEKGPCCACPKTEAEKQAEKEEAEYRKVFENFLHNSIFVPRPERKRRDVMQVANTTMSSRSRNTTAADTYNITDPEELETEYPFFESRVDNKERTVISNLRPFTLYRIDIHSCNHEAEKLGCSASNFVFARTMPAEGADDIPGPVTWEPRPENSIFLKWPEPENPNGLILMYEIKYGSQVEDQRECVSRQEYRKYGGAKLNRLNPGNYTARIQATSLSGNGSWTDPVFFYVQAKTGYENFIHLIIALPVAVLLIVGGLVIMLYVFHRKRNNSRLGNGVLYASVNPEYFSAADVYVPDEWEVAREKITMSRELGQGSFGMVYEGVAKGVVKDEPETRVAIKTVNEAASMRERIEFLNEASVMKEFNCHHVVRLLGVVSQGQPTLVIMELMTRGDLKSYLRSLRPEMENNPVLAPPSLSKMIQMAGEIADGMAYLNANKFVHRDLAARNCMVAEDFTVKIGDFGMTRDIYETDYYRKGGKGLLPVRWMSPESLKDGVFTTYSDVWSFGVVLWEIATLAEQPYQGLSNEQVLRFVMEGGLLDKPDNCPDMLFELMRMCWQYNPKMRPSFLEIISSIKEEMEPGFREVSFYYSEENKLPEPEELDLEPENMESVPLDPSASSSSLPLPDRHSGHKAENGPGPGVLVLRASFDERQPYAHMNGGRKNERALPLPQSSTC
Chain of LCK (Lymphoid T-cell protein tyrosine kinase) (P06239 whole entry, species assumed): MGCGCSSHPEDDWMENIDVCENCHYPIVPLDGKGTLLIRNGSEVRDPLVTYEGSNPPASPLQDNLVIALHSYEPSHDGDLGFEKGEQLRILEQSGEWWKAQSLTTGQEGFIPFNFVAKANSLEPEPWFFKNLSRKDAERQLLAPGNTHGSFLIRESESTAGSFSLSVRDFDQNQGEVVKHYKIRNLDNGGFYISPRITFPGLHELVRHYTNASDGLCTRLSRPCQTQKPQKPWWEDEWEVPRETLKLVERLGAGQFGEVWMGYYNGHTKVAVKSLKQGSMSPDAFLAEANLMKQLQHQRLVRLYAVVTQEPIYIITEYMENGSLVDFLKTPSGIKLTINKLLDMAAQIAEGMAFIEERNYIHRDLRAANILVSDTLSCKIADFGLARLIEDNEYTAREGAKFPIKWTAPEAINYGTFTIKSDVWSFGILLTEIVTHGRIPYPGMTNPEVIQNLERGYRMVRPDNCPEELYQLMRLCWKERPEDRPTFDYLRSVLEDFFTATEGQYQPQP
Chain of BTK (Bruton's agarnrnaglobulinaemia tyrosine kinase) (Q06187 whole entry, species assumed): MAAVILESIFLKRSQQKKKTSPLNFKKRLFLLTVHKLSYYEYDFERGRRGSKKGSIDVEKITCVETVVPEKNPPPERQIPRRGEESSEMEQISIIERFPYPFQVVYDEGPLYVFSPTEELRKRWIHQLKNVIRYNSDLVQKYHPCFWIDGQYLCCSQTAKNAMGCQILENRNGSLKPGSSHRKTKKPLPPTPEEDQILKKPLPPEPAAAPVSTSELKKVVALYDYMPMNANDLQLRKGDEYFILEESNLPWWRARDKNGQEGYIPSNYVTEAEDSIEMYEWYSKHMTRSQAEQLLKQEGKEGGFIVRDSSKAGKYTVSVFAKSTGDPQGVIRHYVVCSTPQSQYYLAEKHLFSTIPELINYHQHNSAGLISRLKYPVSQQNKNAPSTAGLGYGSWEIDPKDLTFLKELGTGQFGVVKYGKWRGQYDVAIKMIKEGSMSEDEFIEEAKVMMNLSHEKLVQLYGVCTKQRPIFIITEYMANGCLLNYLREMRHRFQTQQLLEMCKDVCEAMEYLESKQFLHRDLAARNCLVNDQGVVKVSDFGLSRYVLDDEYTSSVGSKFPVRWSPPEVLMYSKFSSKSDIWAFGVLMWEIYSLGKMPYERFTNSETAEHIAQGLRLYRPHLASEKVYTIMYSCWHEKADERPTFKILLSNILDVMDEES

N#C/C(=C\c1ccc(O)c(O)c1)C(=O)NCCCCc1ccccc1 [tyrphostin AG 556]
effect on cartilage degradation by chondrocytes (chondrocytes): reduce or prevent

O=c1c(-c2ccc(O)cc2)coc2cc(O)cc(O)c12 [genistein]
effect on cartilage degradation by chondrocytes (chondrocytes): reduce or prevent

COc1cc(C(=O)O)c([N+](=O)[O-])cc1OC [4,5-dimethoxy-2-nitrobenzoic acid]
inhibition of JAK3 (JAK3): specifically inhibit

N#CC(C#N)=Cc1cc(O)c(O)c(O)c1 [tyrphostin AG 82]
effect on cartilage degradation by chondrocytes (chondrocytes): reduce or prevent

COc1cc(C(N)=O)c([N+](=O)[O-])cc1OC [4,5-dimethoxy-2-nitrobenzamide]
inhibition of JAK3 (JAK3): specifically inhibit

O=C1NC(=O)c2cc(Nc3ccccc3)c(Nc3ccccc3)cc21 [DAPH, 4,5-dianilinophthalimide]
effect on cartilage degradation by chondrocytes (chondrocytes): reduce or prevent

NC1=NC(=O)C(=C2CCNC(=O)c3[nH]c(Br)cc32)N1 [H, 4-(2-amino-4-oxo-2-imidazolin-5-ylidene)-2-bromo-4,5,6,7-tetrahydropyrrolo (2,3-c) azepine-8-one]
EC50 [1]: 2.6 to 10.7 µM
Inhibition of ZAP-70 [2]: weak
Inhibition of LCK [3]: weak
Inhibition of BTK [4]: weak
Inhibition of IGFR [5]: weak
inhibition of IL-1 induced degradation of glycosaminoglycan and extracellular matrix [6]: inhibit

CO[C@H]1[C@@H](OC)C[C@H](C)[C@@H](OC)C2=CC(=O)C=C(NC(=O)/C(C)=C/C=C\[C@H](OC)[C@@H](OC(N)=O)/C(C)=C/[C@@H]1C)C2=O [herbimycin A]
effect on cartilage degradation by chondrocytes (chondrocytes): reduce or prevent

rhIL-1β: recombinant human interleukin-1β (R&D Systems)
effect on the level of JAK3 mRNA (JAK3 mRNA): neither increases nor decreases

— patent publication US20040209799A1, “JAK/STAT pathway inhibitors and the uses thereof” (priority 2000, published 2004)
